In test [1] the test system is antibodies in sera of SLE patients and healthy controls. As to the kind of experiment: ELISA of sera for antibodies binding plate-coated peptides or mAb. Further details: species or system human. The settings on record: plates coated with 10 μg/ml; FIG. 7. How it is done:
Human SLE patients (32 patients) were bled and their sera were tested by ELISA for their ability to bind the peptides Ia, IIa and 111a, a control peptide p195-212 (a myasthogenic peptide described in PCT publication No. WO 94/00148) or mAb 5G12.
Detection of the antibodies was conducted on plates that were coated with 10 μg/ml of peptides Ia, IIa, IIIa, p195-212 or mAb 5G12, in PBS for 2 hr, washed and blocked with 1% ovalbumin in PBS for an additional 2 hr. ELISA was continued as described after blockage in Example 2 of PCT International Publication No. 96/30057, using goat anti-human IgG polyclonal antibody conjugated to peroxidase.
In general terms: ELISA stands for enzyme-linked immunosorbent assay.

The test system of the next test is PBL from SLE patients. As to the kind of experiment: Proliferation of PBL in presence of mAb or peptides (3H-thymidine). Format: cell-based, human. How it is done:
(§1) Peripheral blood lymphocytes (PBL) were isolated from the blood of SLE patients or healthy controls using ficol gradient. Thereafter, the PBL were incubated in the presence of different concentrations of the peptides Ia, IIa or IIIa, or the human 16/6 Id mAb for 24 hr, when a sample was taken for IL-2 measurement. The assay was continued for a total of 7 days, and ^3H-thymidine was added for the last 16 hr. Proliferation was detected by reading the amount of radioactivity incorporated into the DNA of the cells.
(§2) As is seen in Table 14, a lower proportion of the PBL taken from SLE patients reacted to the peptides or to the 16/6 Id mAb, when compared to the healthy controls. The results are expressed in percentage of responder (34% in the first line) and the actual number of patients (11 out of 32: 11/32).

For test [2], the system named is PBL from healthy controls. Described as above. Format: cell-based, human. The protocol:
as §1, §2

The subject of a further test is PBL of SLE patients. Nature of the test: Production of IL-2 by PBL in presence of mAb or peptides (CTLD cells). The class given is cell-based, human. How it is done: (§3) PBL were isolated from blood of SLE patients or healthy controls using ficol gradient, and were incubated as in Example 11. A sample of 50 μl was removed 24 hr after the assay was started, and incubated in the presence of IL-2 sensitive cells (CTLD) for 24 hr, after which ^3H-thymidine was added for 16 hr, and the plates were harvested and counted on a beta counter.

For another test, the system named is PBL of healthy controls. The description is as above. The class given is cell-based, human. The protocol:
as §3

The subject of test [3] is PBL of SLE patients stimulated with human 16/6Id mAb. The class given is cell-based. The settings on record: for inhibition of proliferative responses to human 16/6Id mAb: PBL of one SLE patient; for Percent Inhibition of proliferation: highest positive inhibition, peptide 50 or 100 μg/well. The protocol: Cells were then harvested and radioactivity was counted using a β-counter. Results were expressed as mean counts per minute (cpm) of triplicate cultures. Stimulation indices (the ratio of mean cpm at the optimal concentration of 16/6Id to mean cpm without 16/6Id) were then calculated. A stimulation index (SI)≧2 was considered positive. […] Inhibition of above 50% of the proliferative capacity was considered positive. The Table represents the highest positive inhibition capacity for each peptide. […] Both peptides inhibited the proliferation of PBL of 18/19(95%) of responders tested. It can also be seen in the Table that the magnitudes of inhibitions were similar for both peptides. Thus, it can be concluded that peptides based on CDR1 and CDR3 of the human 16/6Id mAb are efficient inhibitors of the proliferation of PBL of SLE patients to the human 16/6Id mAb.

Test [4] has as its system PBL of SLE patients stimulated with phytohemagglutinin (PHA). As to the kind of experiment: Proliferation of PBL stimulated with mitogen PHA. The class given is cell-based, human. The note with it: PHA 2 μg/ml; PBL of one SLE patient, FIG. 9. How it is done: To this end the peptides hCDR1 or hCDR3 were added to cultures of PBL of SLE patients that were stimulated with the mitogen phytohemagglutinin (PHA, 2 μg/ml).

Test [5] deals with IL-2 secretion by PBL of SLE patients. As to the kind of experiment: Inhibition of IL-2 secretion by PBL stimulated with human 16/6Id mAb (CTLL line). The class given is cell-based. The protocol: It was of interest to find out whether the hCDR peptides are capable of inhibiting IL-2 secretion by PBL of SLE patients following stimulation with the human 16/6Id mAb. […] To this end, PBL of SLE patients were incubated with the human 16/6Id mAb in the absence or presence of the peptides hCDR1 or hCDR3. Supernatants of the cultures were collected following 48 hours of incubation. Assays to determine levels of IL-2 in the supernatants were performed using the CTLL IL-2 dependent line. Briefly, cells of the CTLL line (2×10^4/well) were incubated in the presence of the different supernatants for 24 hours, followed by the addition of ^3H-thymidine for an additional 18-hour incubation period. Cells were then harvested and radioactivity counted using a β-counter. Results were calculated based on recombinant human IL-2 used as a standard. The ability of the peptides to inhibit the IL-2 secretion of PBL of 23 responders stimulated by the human 16/6 Id was tested. […] Inhibition of proliferative responses of PBL directly correlated with IL-2 inhibition by the CDR-based peptides.

Test [6] concerns TGF-β secretion by PBL of SLE patients. Nature of the test: Up-regulation of TGF-β secretion by PBL stimulated with human 16/6Id mAb (ELISA). The class given is cell-based. How it is done: For this purpose, supernatants were removed from cultures of PBL of various SLE patients following 48 hours incubation with the human 16/6Id mAb in the absence or presence of the peptides hCDR1 or hCDR3. TGF-β was determined by ELISA according to the manufacturer's instructions. Briefly, Maxisorb plates (Nunc) were coated with recombinant human TGFβsRII/Fc chimera (R & D Systems) diluted in PBS (100 ng/ml). After blocking, cell supernatants were added. After 18 hours incubation the detecting biotinylated anti-human TGF-β antibody (R & D Systems) was added. The substrate solution used was the TMB Colour Reagent (Helix Diagnostics) and enzyme activity was evaluated by the MRX ELISA reader using the 570 nm and 630 nm filters.

Like-named read-outs stand apart in the source and are kept apart here. Bounds are passed on as bounds.

As for “EINPSTGGTTYNQKFKAKAT (EINPSTGGTTYNQKFKAKAT) [pep IIa, based on CDR2 of the VH chain of mAb 5G12]”, the “levels of serum antibodies binding the coated antigen, SLE patients versus healthy controls” value (from here on “levels … SLE patients versus healthy controls”) in [1] was “significantly higher levels”. Moreover, in the test on PBL from SLE patients, the “number of responders / tested (proliferation)” value is 3/32 and the “percentage of responders (proliferation)” value came out at 9%. Further, in test [2], the “number of responders / tested (proliferation)” value was 7/25 and the “percentage of responders (proliferation)” value is 28%. In the test with PBL of SLE patients, the “number of responders / tested (IL-2 production)” value is 3/32. In addition, in the test on PBL of healthy controls, the “number of responders / tested (IL-2 production)” value was 8/25 and the “percentage of responders (IL-2 production)” value is recorded as 32%.

Consider “YYCARFLWEPYAMDYWGQGS (YYCARFLWEPYAMDYWGQGS) [pep IIIa, based on CDR3 of the VH chain of mAb 5G12]”, for which the “levels … SLE patients versus healthy controls” value in [1] was “significantly higher levels”. In the test on PBL from SLE patients, the “number of responders / tested (proliferation)” value was 10/32 and the “percentage of responders (proliferation)” value is reported as 31%. Moreover, in [2], the “number of responders / tested (proliferation)” value is recorded as 15/25 and the “percentage of responders (proliferation)” value is listed as 60%. In addition, in the test with PBL of SLE patients, the “number of responders / tested (IL-2 production)” value is 5/32 and the “percentage of responders (IL-2 production)” value is listed as 16%. Besides, in the test on PBL of healthy controls, the “number of responders / tested (IL-2 production)” value is 16/25 and the “percentage of responders (IL-2 production)” value is listed as 64%. The “inhibition of proliferative responses to human 16/6Id mAb” value in [3] (FIG. 10) is “did not inhibit”.

As to “TGYYMQWVKQSPEKSLEWIG [pep Ia]”, in [1], the “levels … SLE patients versus healthy controls” value was “significantly higher levels”. In addition, the “number of responders / tested (proliferation)” value in the test with PBL from SLE patients was 7/32; in [2], 11/25. Moreover, the figures for the “percentage of responders (proliferation)” value (in the test on PBL from SLE patients; in test [2]) were 21% and 44%, respectively. Moreover, the results for the “number of responders / tested (IL-2 production)” value in the test with PBL of SLE patients and with PBL of healthy controls were 5/32 and 14/25, respectively. Further, the “percentage of responders (IL-2 production)” value in the test with PBL of SLE patients came out at 16%; in the test with PBL of healthy controls, 56%.

Take “YYCARGLLRGGWNDVDYYGMDV [hCDR3, peptide based on CDR3 of the human 16/6Id mAb]”: the entries for the “inhibition of proliferative responses to human 16/6Id mAb” value in [3] (FIG. 10) and in [3] (FIG. 11) were “inhibited efficiently” and “did inhibit efficiently”, respectively. Moreover, the “Percent Inhibition of proliferation” value in [3] (SLE patient Number 1) is less than 50%; in test [3] (SLE patient Number 2) it was 75%; in test [3] (SLE patient Number 3) it was less than 50%; in test [3] (SLE patient Number 4), less than 50%; in [3] (SLE patient Number 5), 87.5%; in [3] (SLE patient Number 6), 80%. For the same substance, the “Percent Inhibition of proliferation” value came to 70.4% in [3] (SLE patient Number 7); 56% in [3] (SLE patient Number 8); 65% in [3] (SLE patient Number 9); 71.8% in [3] (SLE patient Number 10); 72% in test [3] (SLE patient Number 11); 86% in test [3] (SLE patient Number 12). Also, the “Percent Inhibition of proliferation” value in test [3] (SLE patient Number 13) was 64%; in [3] (SLE patient Number 14) it was 74%; in test [3] (SLE patient Number 15), 69%; in test [3] (SLE patient Number 16) it was 68%; in test [3] (SLE patient Number 17) it was 77.8%; in test [3] (SLE patient Number 18) it was less than 50%. Moreover, in test [3] (SLE patient Number 19), the “Percent Inhibition of proliferation” value stood at 60.8%. The “responders whose PBL proliferation was inhibited (above 50%)” value in test [3] (of the 19 responders tested) worked out at 78.9%. The “Percent Inhibition of proliferation, Mean ± SD” value in test [3] (over patients with positive inhibition (above 50%)) is 71.82 ± 8.44%. In addition, the “inhibition of proliferative responses to mitogen PHA” value in [4] is “could not inhibit”. Also, the “patients whose PBL IL-2 secretion was inhibited / tested” value in test [5] (23 responders) is reported as 19/23. This substance displayed a Maximum inhibition % in test [5] (IL-2 secretion with 16/6 Id alone = 100%) of 78 ± 34%. Also, the “Inhibitory Activity* % (patients with inhibition of 50% or more)” value in test [5] (PBL of 23 responders) is 83 (19/23) %. In addition, in test [5] (PBL of one SLE patient, FIG. 12), the “inhibition of IL-2 secretion” value stood at 100%. Further, in test [6] (PBL of SLE patients, 48 hours), the “Up-Regulation of TGF-β % (patients)” value is given as 100 (19/19) %. The “secretion of TGF-β” value in test [6] (PBL of one representative SLE patient, FIG. 13) is “significant up-regulation”. For the same substance, the “Maximum Up-regulation %” value in test [6] (percent secretion above that in the presence of 16/6 Id alone (= 100%)) worked out at 338 ± 242%.
